# Where “and” joins values, the source holds several entries; their conditions need not be identical. Equal values may be shown once. Results filed as inconclusive are left out.
# Test system: MX-1 breast xenograft, nude mice, tumor weight T/C
# Test: NCI In Vivo Anticancer Drug Screen. Data for tumor model Human Mammary Carcinoma MX-1 Xenograft (intrarenal inoculation) in NU/NU Swiss (nude) mice
# Details: endpoint: mean tumor weight change, higher = larger tumour
# Procedure, shortened: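 Tumor-bearing mice were treated with test compound alongside a vehicle-treated control group. Survival or tumor size was measured, and activity is expressed as the treated-group value divided by the control-group value.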
# [1] = dose: 150.0 mg/kg/injection, schedule: Q04DX003 (sc), vehicle: suspension in saline
# [2] = dose: 12.5 mg/kg/injection, schedule: Q01DX010 (sc), vehicle: Klucel (hydroxypropylcellulose) (HPC)
# [3] = dose: 25.0 mg/kg/injection, schedule: Q01DX010 (sc), vehicle: Klucel (hydroxypropylcellulose) (HPC)
# [4] = dose: 100.0 mg/kg/injection, schedule: Q01DX010 (sc), vehicle: Klucel (hydroxypropylcellulose) (HPC)
# [5] = dose: 150.0 mg/kg/injection, schedule: Q04DX003 (sc), vehicle: Klucel (hydroxypropylcellulose) (HPC)
# [6] = dose: 300.0 mg/kg/injection, schedule: Q04DX003 (sc), vehicle: Klucel (hydroxypropylcellulose) (HPC)
# [7] = dose: 600.0 mg/kg/injection, schedule: Q04DX003 (sc), vehicle: Klucel (hydroxypropylcellulose) (HPC)
# [8] = dose: 1200.0 mg/kg/injection, schedule: Q04DX003 (sc), vehicle: Klucel (hydroxypropylcellulose) (HPC)
# [9] = dose: 37.5 mg/kg/injection, schedule: Q04DX003 (sc), vehicle: saline with Tween-80
# [10] = dose: 75.0 mg/kg/injection, schedule: Q04DX003 (sc), vehicle: saline with Tween-80
# [11] = dose: 150.0 mg/kg/injection, schedule: Q04DX003 (sc), vehicle: saline with Tween-80
# [12] = dose: 2400.0 mg/kg/injection, schedule: Q04DX003 (sc), vehicle: Klucel (hydroxypropylcellulose) (HPC)
# [13] = dose: 300.0 mg/kg/injection, schedule: Q04DX003 (sc), vehicle: saline
# [14] = dose: 600.0 mg/kg/injection, schedule: Q04DX003 (sc), vehicle: saline
# [15] = dose: 1200.0 mg/kg/injection, schedule: Q04DX003 (sc), vehicle: saline
structure (smiles),measurement,setting,value
O=C1c2c(O)cccc2-c2nn(CCNCCO)c3ccc(NCCNCCO)c1c23,T/C,"dose: 11.0 mg/kg/injection, schedule: Q04DX003 (ip), vehicle: water",-100 % of control
S=C=NCCc1ccccc1,T/C,"dose: 25.0 mg/kg/injection, schedule: Q01DX010 (sc), vehicle: saline with Tween-80",161 % of control
same,T/C,"dose: 50.0 mg/kg/injection, schedule: Q01DX010 (sc), vehicle: saline with Tween-80",156 % of control
same,T/C,"dose: 100.0 mg/kg/injection, schedule: Q01DX010 (sc), vehicle: saline with Tween-80",72 % of control
same,T/C,"dose: 200.0 mg/kg/injection, schedule: Q01DX010 (sc), vehicle: saline with Tween-80",113 % of control
CN(C)CCCNc1c2ccccc2nc2cccc([N+](=O)[O-])c12,T/C,"dose: 0.37 mg/kg/injection, schedule: Q04DX003 (sc), vehicle: saline",78 % of control
Clc1ccc2nnnn2n1,T/C,"dose: 100.0 mg/kg/injection, schedule: Q04DX003 (sc), vehicle: saline with Tween-80",173 % of control
same,T/C,"dose: 200.0 mg/kg/injection, schedule: Q04DX003 (sc), vehicle: saline with Tween-80",95 % of control
COC1N(C2CC(O)C(CO)O2)C(=O)NC(=O)C1(F)Br (stereo not given),T/C,"dose: 12.5 mg/kg/injection, schedule: Q01DX010 (sc), vehicle: saline",117 % of control
O=C1OC(=O)[C@H]2[C@@H]1[C@H]1C=C[C@@H]2OC1=O,T/C,"dose: 25.0 mg/kg/injection, schedule: Q04DX003 (sc), vehicle: suspension in saline",83 % of control
same,T/C,"dose: 50.0 mg/kg/injection, schedule: Q04DX003 (sc), vehicle: suspension in saline",101 % of control
same,T/C,"dose: 100.0 mg/kg/injection, schedule: Q04DX003 (sc), vehicle: suspension in saline",89 % of control
same,T/C,[1],91 % of control
same,T/C,"dose: 200.0 mg/kg/injection, schedule: Q04DX003 (sc), vehicle: suspension in saline",90 % of control
same,T/C,"dose: 300.0 mg/kg/injection, schedule: Q04DX003 (sc), vehicle: suspension in saline",109 % of control
same,T/C,"dose: 600.0 mg/kg/injection, schedule: Q04DX003 (sc), vehicle: suspension in saline",89 % of control
Oc1ccccc1C=NCCC[N-]CCCN=Cc1ccccc1O.[Co],T/C,"dose: 25.0 mg/kg/injection, schedule: Q01DX010 (sc), vehicle: suspension in saline",85 % of control
same,T/C,"dose: 50.0 mg/kg/injection, schedule: Q01DX010 (sc), vehicle: suspension in saline",93 % of control
same,T/C,"dose: 100.0 mg/kg/injection, schedule: Q01DX010 (sc), vehicle: suspension in saline",40 % of control
same,T/C,"dose: 200.0 mg/kg/injection, schedule: Q01DX010 (sc), vehicle: suspension in saline",31 % of control
Cc1ccc(C(=O)NC2C(=O)NC(C(C)C)C(=O)N3CCCC3C(=O)N(C)CC(=O)N(C)C(C(C)C)C(=O)OC2C)c2c1Oc1c(c(C(=O)NC3C(=O)NC(C(C)C)C(=O)N4CCCC4C(=O)N(C)CC(=O)N(C)C(C(C)C)C(=O)OC3C)c3nc(-c4ccccc4)c(=O)oc3c1C)N2 (stereo not given),T/C,"dose: 0.25 mg/kg/injection, schedule: Q04DX003 (ip), vehicle: water",77 % of control
same,T/C,"dose: 0.5 mg/kg/injection, schedule: Q04DX003 (ip), vehicle: water",75 % of control
same,T/C,"dose: 1.0 mg/kg/injection, schedule: Q04DX003 (ip), vehicle: water",49 % of control
same,T/C,"dose: 2.0 mg/kg/injection, schedule: Q04DX003 (ip), vehicle: water",51 % of control
same,T/C,"dose: 4.0 mg/kg/injection, schedule: Q04DX003 (ip), vehicle: water",12 % of control
CCCCc1ccc(-n2c(C)c(COC(=O)NC)c(COC(=O)NC)c2C)cc1,T/C,[2],114 % of control
same,T/C,[3],84 % of control
same,T/C,"dose: 50.0 mg/kg/injection, schedule: Q01DX010 (sc), vehicle: Klucel (hydroxypropylcellulose) (HPC)",34 % of control
same,T/C,[4],77 % of control
O=NN(CCCl)C(=O)Oc1ccc(OC(=O)N(CCCl)N=O)cc1,T/C,[5],107 % of control
same,T/C,[6],95 % of control
same,T/C,[7],91 % of control
same,T/C,[8],117 % of control
c1cc2n(n1)CCN2,T/C,"dose: 50.0 mg/kg/injection, schedule: Q01DX010 (sc), vehicle: saline",75 % of control and 77 % of control
C[C@@H]1C[C@H]2[C@@H]3CCC4=CC(=O)C=C[C@]4(C)[C@@]3(F)[C@@H](O)C[C@]2(C)[C@@]1(O)C(=O)CO,T/C,"dose: 3.13 mg/kg/injection, schedule: Q01DX010 (sc), vehicle: Klucel (hydroxypropylcellulose) (HPC)",44 % of control
same,T/C,"dose: 6.25 mg/kg/injection, schedule: Q01DX010 (sc), vehicle: Klucel (hydroxypropylcellulose) (HPC)",28 % of control
same,T/C,[2],35 % of control
same,T/C,[3],33 % of control
CCOc1ccc(-c2nc3ccc(-c4nc5ccc(N6CCN(C)CC6)cc5[nH]4)cc3[nH]2)cc1,T/C,"dose: 25.0 mg/kg/injection, schedule: Q04DX003 (ip), vehicle: saline",96 % of control
CCCCCC[Se][Se]CCCCCC,T/C,"dose: 75.0 mg/kg/injection, schedule: Q04DX003 (sc), vehicle: Klucel (hydroxypropylcellulose) (HPC)",98 % of control
same,T/C,[5],80 % of control
same,T/C,[6],102 % of control and 114 % of control
C/C(=N\NC(=S)N1CC2CCC(CC2)C1)c1cccc(C)n1,T/C,"dose: 50.0 mg/kg/injection, schedule: Q04DX003 (ip), vehicle: saline with Tween-80",79 % of control
CN(C)N=Nc1ccc(S(N)(=O)=O)cc1,T/C,[4],75 % of control
same,T/C,"dose: 200.0 mg/kg/injection, schedule: Q01DX010 (sc), vehicle: Klucel (hydroxypropylcellulose) (HPC)",47 % of control
same,T/C,"dose: 400.0 mg/kg/injection, schedule: Q01DX010 (sc), vehicle: Klucel (hydroxypropylcellulose) (HPC)",42 % of control
Nc1nc2c(C(=O)N3CCCC3)nnn2c2ccccc12,T/C,[9],35 % of control
same,T/C,[10],74 % of control
same,T/C,[11],49 % of control
COc1ccc(S(=O)(=O)N=N/C=C2\C=CC=CN2O)cc1OC,T/C,[9],81 % of control
same,T/C,[10],61 % of control
same,T/C,[11],47 % of control
same,T/C,"dose: 300.0 mg/kg/injection, schedule: Q04DX003 (sc), vehicle: saline with Tween-80",64 % of control
C[C@]12CCC(=O)C=C1CC[C@@H]1[C@@H]2C(=O)C[C@@]2(C)[C@H]1CC[C@]2(O)C(=O)CO,T/C,[6],108 % of control
same,T/C,[7],45 % of control
COc1ccc2c(ccc3oc([N+](=O)[O-])cc32)c1,T/C,[6],99 % of control
same,T/C,[7],72 % of control
same,T/C,[8],71 % of control
same,T/C,[12],36 % of control
Nc1ncnc2c1ccn2C1OC(CO)C(O)C1O (stereo not given),T/C,"dose: 1.0 mg/kg/injection, schedule: Q01DX010 (sc), vehicle: Klucel (hydroxypropylcellulose) (HPC)",101 % of control
same,T/C,"dose: 2.0 mg/kg/injection, schedule: Q01DX010 (sc), vehicle: Klucel (hydroxypropylcellulose) (HPC)",157 % of control
same,T/C,"dose: 4.0 mg/kg/injection, schedule: Q01DX010 (sc), vehicle: Klucel (hydroxypropylcellulose) (HPC)",75 % of control
O=c1[nH]c(=O)n(C2CC(O)C(CO)O2)cc1Br (stereo not given),T/C,[7],91 % of control
same,T/C,[8],80 % of control
same,T/C,[12],59 % of control
same,T/C,"dose: 4800.0 mg/kg/injection, schedule: Q04DX003 (sc), vehicle: Klucel (hydroxypropylcellulose) (HPC)",27 % of control
C[C@H](N)C(=O)N[C@@H]1[C@H]2C(=C(O)C[C@@H](O)[C@@H]2O)C(=O)O[C@@H]1C,T/C,[13],81 % of control
same,T/C,[14],67 % of control
same,T/C,[15],88 % of control
same,T/C,"dose: 2400.0 mg/kg/injection, schedule: Q04DX003 (sc), vehicle: saline",99 % of control
CC(=O)OCC1OC(n2ccc(N)nc2=O)C(OC(C)=O)C1OC(C)=O (stereo not given),T/C,[1],89 % of control
same,T/C,[13],107 % of control
same,T/C,[14],82 % of control
same,T/C,[15],84 % of control
same,T/C,"dose: 2400.0 mg/kg/injection, schedule: Q04DX003 (sc), vehicle: suspension in saline",14 % of control
O=C(CCBr)N1CCN(C(=O)CCBr)CC1,T/C,"dose: 4.5 mg/kg/injection, schedule: Q01DX010 (sc), vehicle: Klucel (hydroxypropylcellulose) (HPC)",111 % of control
same,T/C,[2],52 % of control
same,T/C,"dose: 18.0 mg/kg/injection, schedule: Q01DX010 (sc), vehicle: Klucel (hydroxypropylcellulose) (HPC)",33 % of control and 48 % of control
same,T/C,[3],19 % of control
same,T/C,"dose: 36.0 mg/kg/injection, schedule: Q01DX010 (sc), vehicle: Klucel (hydroxypropylcellulose) (HPC)",1 % of control and 9 % of control
